{
  "source": "patent US20030162191A1",
  "about": "“Enzymes and uses relating thereto” (priority 2000, published 2003)",
  "key": {"[1]": {"target": "T1, pH7 nSMase (Homo sapiens, UniProt Q92485)", "T1 construct": "For pH7 nSMase assays, membranes from Jurkat cells (human T-cell lymphoma) were used; endogenous in cells; host or cells: Jurkat (human T-cell lymphoma) membranes, Triton X-100 eluate", "T1 sequence (Q92485 19-455)": "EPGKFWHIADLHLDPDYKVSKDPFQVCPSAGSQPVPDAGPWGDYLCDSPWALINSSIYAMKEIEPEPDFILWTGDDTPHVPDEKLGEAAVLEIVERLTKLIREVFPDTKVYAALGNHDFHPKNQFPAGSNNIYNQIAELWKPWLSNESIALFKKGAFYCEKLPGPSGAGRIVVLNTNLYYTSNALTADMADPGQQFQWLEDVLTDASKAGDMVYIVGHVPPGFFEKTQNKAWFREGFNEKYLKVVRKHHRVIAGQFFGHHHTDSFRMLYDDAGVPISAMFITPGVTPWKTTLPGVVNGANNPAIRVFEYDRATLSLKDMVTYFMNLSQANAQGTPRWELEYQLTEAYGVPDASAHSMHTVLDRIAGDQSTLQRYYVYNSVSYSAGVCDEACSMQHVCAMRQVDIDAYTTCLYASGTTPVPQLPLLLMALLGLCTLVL", "assay": "pH7 nSMase assay in the presence of C11AG (membranes from Jurkat cells, Tris pH6.5)", "assay_type": "biochemical", "details": "pH7 nSMase versus pH8 nSMase", "experimental": "SMase activities were determined in the presence of 0, 1, 10, 100 or 1000 μg/ml C11AG. C11AG-acetate was used as a stock solution of 10 mg/ml in water.\nFor pH7 nSMase assays, membranes from Jurkat cells (human T-cell lymphoma) were used.\nFrom each preparation 5 μg of protein were used for (1) a pH7 nSMase assay (in 50 μl 50 mM Tris pH6.5, 5 mM MgCl2, 1 mM NaF, 1 mM NaVO3, 0.1% Triton X 100, 20 nCi ^14C sphingomyelin), (2) a pH8 nSMase assay (in 50 μl 50 mM Tris pH8.5, 5 mM MgCl2, 1 mM NaF, 1 mM NaVO3, 0.1% Triton X 100, 20 nCi ^14C sphingomyelin) and (3) an acidic SMase assay (in 50 μl 50 mM NaH2PO4 pH5.0, 5 mM MgCl2, 1 mM NaF, 1 mM NaVO3, 0.1% Triton X 100, 20 nCi ^14C sphingomyelin).\nAfter 30 minutes phosphorylcholine (PCH) was extracted by the addition of 2 volumes methanol/chloroform (2/1). PCH counts were determined in an aliquot of 10 μl after separation on TLC plates (Merck 60, F254, running solvent: 0.9% NaCl/methanol/NH4OH (50/70/5, V/V/V) in a Digital Autoradiograph. PCH counts of the uninhibited reaction were set 100% enzyme activity. Each assay was done in quadruplicate."}, "[2]": {"test_system": "Human T-cell lymphoma cells (Jurkat)", "assay": "Stimulation of anti-APO-1 (anti-CD95) induced apoptosis in Jurkat cells", "assay_type": "cell-based", "details": "C11AG at 1 μg/ml, 24 hours, 37° C., FIG. 7", "experimental": "Human T-cell lymphoma cells (Jurkat) were seeded in 96-well plates at a density of 10^5 cells per ml. An antibody directed against CD95 (anti-APO-1) was added at various concentrations with and without C11AG at 1 μg/ml. After incubation at 37° C. for 24 hours, cell numbers were determined afer vital staining. By Nicoleti staining it was confirmed that dead cells had died due to apoptosis. All assays were done in triplicate."}, "[3]": {"test_system": "cells with or lacking pH8 nSMase", "assay": "Sensitivity of cells to C11AG according to pH8 nSMase expression", "assay_type": "cell-based"}},
  "data": [
    {"molecule": "CCCCCCCCCCC=NNC(=N)N", "note": "[C11AG, 1-(undecylidene-amino)guanidine]", "values": [
      {"measurement": "fold more active on pH7 nSMase than on pH8 nSMase", "setting": "[1]", "value": "200-1000 fold"},
      {"measurement": "induction of apoptosis by anti-APO-1", "setting": "[2]", "value": "stimulated induction of apoptosis"},
      {"measurement": "response to C11AG of cells which have both pH7 nSMase and pH8 nSMase", "setting": "[3]; cells with both pH7 nSMase and pH8 nSMase", "value": "show resistance"},
      {"measurement": "response to C11AG of cells lacking pH8 nSMase", "setting": "[3]; solid tumour cells, T cell lymphoma cells, activated or autoreactive T cells", "value": "are sensitive"}
    ]}
  ]
}
